Consider 52 molecules from US7094911B2, “Biphenyl and biphenyl-analogous compounds as integrin antagonists” (Bayer Aktiengesellschaft, priority 1998, dated 2006).

Structures are written as SMILES.

What is called melting point is the temperature of the solid-liquid transition.

As to `Cc1cc(C)c(S(=O)(=O)N[C@@H](Cc2ccc(-c3cccc(NC(=O)Nc4nc5ccc(C)cc5o4)c3)cc2)C(=O)O)c(C)c1` [Example 1.196], the melting point worked out at 213 °C.
The figure for `O=C(O)C[C@@H](NS(=O)(=O)c1cccc(-c2cccc(NC(=O)NCc3cccnc3)c2)c1)c1ccccc1` [Example 4.92] is 126 °C; for `CN(CC(=O)O)S(=O)(=O)c1cccc(-c2cccc(NC(=O)NC3CC3)c2)c1` [Example 6.11] it is 117 °C.
Next, `Cc1cc(C)c(S(=O)(=O)N[C@@H](Cc2ccc(-c3cccc(Nc4c(NCc5ccccc5)c(=O)c4=O)c3)cc2)C(=O)O)c(C)c1` [Example 13.4]: 226 °C (dec.); `COc1ccc(-c2cccc(Nc3ncccc3N)c2)cc1S(=O)(=O)NC(CC(=O)O)c1ccccc1` (stereo not shown) [Example 20.4]: over 240 °C; `O=C(O)C[C@@H](NS(=O)(=O)c1cccc(-c2cccc(NC(=O)NCc3ccc(C(F)(F)F)cc3)c2)c1)c1ccccc1` [Example 4.95]: 186 °C.
Next, `Cc1cc(C)c(S(=O)(=O)N[C@@H](Cc2ccc(-c3cccc(NC(=O)Nc4cc(C(C)(C)C)on4)c3)cc2)C(=O)O)c(C)c1` [Example 1.209]: 180 °C; `COc1ccc(-c2cccc(NC(=O)NCc3ccc(C(F)(F)F)cc3)c2)cc1S(=O)(=O)N[C@H](CC(=O)O)c1ccccc1` [Example 4.90]: 111 °C (dec.); `Cc1cc(C)c(S(=O)(=O)N[C@@H](Cc2ccc(-c3cccc(NC(=O)Nc4nc5cc(Cl)ccc5o4)c3)cc2)C(=O)O)c(C)c1` [Example 1.195]: 220 °C.
For the molecule `Cc1cc(C)c(S(=O)(=O)N[C@@H](Cc2ccc(-c3cccc(NC(=O)/N=c4\[nH]c5ccc(C(=O)O)cc5[nH]4)c3)cc2)C(=O)O)c(C)c1` [Example 1.189], the melting point was 256 °C (dec.).
In turn, `CC1(C)[C@H]2CCC1(CS(=O)(=O)N[C@@H](Cc1ccc(-c3cccc(N/C(=C/[N+](=O)[O-])NCc4cccnc4)c3)cc1)C(=O)O)C(=O)C2` [Example 12.8] yielded a melting point of 170 °C.
As to `O=C(O)CC(NS(=O)(=O)c1cccc(-c2cccc(NC(=O)Nc3nc4ccccc4[nH]3)c2)c1)c1cccnc1` (stereo not shown) [Example 4.41], the melting point is 170 °C.
The molecule `Cc1cc(C)c(S(=O)(=O)N[C@@H](Cc2ccc(-c3cccc(N/C(=N/C#N)NCc4ccccc4)c3)cc2)C(=O)O)c(C)c1` [Example 10.8] returned a melting point of 169 °C.
On to `COc1ccc(-c2cccc(NC(=O)N=c3[nH]c4ccccc4[nH]3)c2)cc1S(=O)(=O)N[C@H](CC(=O)O)c1ccccc1` [Example 4.88], for which the melting point is 151 °C (dec.).
Regarding `O=C(O)CC(NS(=O)(=O)c1cccc(-c2cccc(Nc3c(Nc4nc5ccccc5[nH]4)c(=O)c3=O)c2)c1)c1ccccc1` (stereo not shown) [Example 13.6], the melting point was 191 °C (dec.).
`O=C(O)CC(NS(=O)(=O)c1cccc(-c2cccc(NC(=O)NC3CC3)c2)c1)c1cccnc1` (stereo not shown) [Example 4.39] came in with a melting point of 144 °C.
For the molecule `Cc1cc(C)c(S(=O)(=O)N[C@@H](Cc2ccc(-c3cccc(NC(=O)NCC(F)(F)C(F)(F)F)c3)cc2)C(=O)O)c(C)c1` [Example 1.211], the melting point is 126 °C.
Consider `COc1ccc(-c2cccc(NC(=O)NCc3cccnc3)c2)cc1S(=O)(=O)N[C@H](CC(=O)O)c1ccccc1` [Example 4.89], for which the melting point is 224 °C (dec.).
As for `Cc1cc(C)c(S(=O)(=O)N[C@@H](Cc2ccc(-c3cccc(CNc4nc5ccccc5[nH]4)c3)cc2)C(=O)O)c(C)c1` [Example 18.4], the melting point is over 240 °C.
Turning to `COc1ccc(-c2cccc(NC(=O)NCc3ccc(C(F)(F)F)cc3)c2)cc1S(=O)(=O)NC(CC(=O)O)c1ccccc1` (stereo not shown) [Example 4.102], the melting point was over 240 °C.
Next, `COc1ccc(-c2cccc(NC(=O)NCC(F)(F)F)c2)cc1S(=O)(=O)NC(CC(=O)O)c1ccccc1` (stereo not shown) [Example 4.100]: over 240 °C; `COc1ccc(-c2cccc(NC(=O)NC3CC3)c2)cc1S(=O)(=O)NCC(=O)O` [Example 4.77]: 128 °C.
The figure for `Cc1cc(C)c(S(=O)(=O)N[C@@H](Cc2ccc(-c3cccc(NC(=O)N=c4[nH]c5cc(C)c(C)cc5[nH]4)c3)cc2)C(=O)O)c(C)c1` [Example 1.190] is 202 °C; for `Cc1cc(C)c(S(=O)(=O)N[C@@H](Cc2ccc(-c3cccc(NC(=O)Nc4cc(C)on4)c3)cc2)C(=O)O)c(C)c1` [Example 1.208] it is 189 °C.
For the molecule `COc1ccc(-c2ccc(NC(=O)NCc3ccccn3)cc2)cc1S(=O)(=O)NC(CC(=O)O)c1ccccc1` (stereo not shown) [Example 4.69], the melting point came to 158 °C.
On to `O=C(O)[C@H](Cc1ccc(-c2cccc(CNc3ccccn3)c2)cc1)NS(=O)(=O)c1ccc(F)cc1` [Example 18.8], for which the melting point was over 240 °C.
Next, `Cc1cc(C)c(S(=O)(=O)N[C@@H](Cc2ccc(-c3cccc(N/C(=C/[N+](=O)[O-])NC4CC4)c3)cc2)C(=O)O)c(C)c1` [Example 12.1.5, (2S)-3-(3′-{[(E)-1-(cyclopropylamino)-2-nitroethenyl]amino}[1,1′-biphenyl]-4-yl)-2-[(mesitylsulfonyl)amino]-propanoic acid]: 149 °C.
For the molecule `CN(CC(=O)O)S(=O)(=O)c1cccc(-c2cccc(NC(=O)Nc3ccncc3)c2)c1` [Example 6.14], the melting point is 142 °C.
In the case of `O=C(O)[C@H](Cc1ccc(-c2cccc(CNc3ccccn3)c2)cc1)NS(=O)(=O)c1ccc(Cl)s1` [Example 18.14], the melting point was over 240 °C.
For `CC1(C)[C@H]2CCC1(CS(=O)(=O)N[C@@H](Cc1ccc(-c3cccc(N/C(=C/[N+](=O)[O-])NC4CCC4)c3)cc1)C(=O)O)C(=O)C2` [Example 12.9], the melting point was 151 °C (dec.).
On to `CCCCNC(=O)Nc1ccc(-c2ccc(OC)c(S(=O)(=O)NC(CC(=O)O)c3ccccc3)c2)cc1` (stereo not shown) [Example 4.65], for which the melting point stood at 125 °C.
The molecule `Cc1cc(C)c(S(=O)(=O)NC(Cc2cccc(-c3ccc(NC(=O)Nc4ccncc4)cc3)c2)C(=O)O)c(C)c1` (stereo not shown) [Example 1.201] gave a melting point of 188 °C.
`Cc1cc(C)c(S(=O)(=O)NC(Cc2cccc(-c3cccc(NC(=O)Nc4ccncc4)c3)c2)C(=O)O)c(C)c1` (stereo not shown) [Example 1.194] came in with a melting point of 207 °C.
Turning to `C#CCN/C(=C\[N+](=O)[O-])Nc1cccc(-c2ccc(C[C@H](NS(=O)(=O)CC34CC[C@@H](CC3=O)C4(C)C)C(=O)O)cc2)c1` [Example 12.6], the melting point was 185 °C (dec.).
The figure for `O=C(O)CNS(=O)(=O)c1cccc(-c2cccc(NC(=O)Nc3nc4ccccc4[nH]3)c2)c1` [Example 4.38] is 172 °C; for `Cc1cc(C)c(S(=O)(=O)NC(Cc2cccc(-c3cccc(NC(=O)NC4CC4)c3)c2)C(=O)O)c(C)c1` (stereo not shown) [Example 1.191] it is 214 °C.
As for `Cc1cc(C)c(S(=O)(=O)N[C@@H](Cc2ccc(-c3cccc(NC(=O)N=c4[nH]c5ccccc5[nH]4)c3)cc2)C(=O)O)c(C)c1` [Example 1.210], the melting point was 207 °C.
For the molecule `O=C(O)CC(NS(=O)(=O)c1cccc(-c2cccc(Nc3nccs3)c2)c1)c1ccccc1` (stereo not shown) [Example 15.1.2, 3-phenyl-3-{[3′-(1,3-thiazol-2-ylamino)[1,1′-biphenyl]-3-yl]sulfonylamino}-propanoic acid], the melting point is 130 °C (dec.).
Next, `COc1ccc(-c2cccc(NC(=O)NCc3ccc(F)cc3)c2)cc1S(=O)(=O)N[C@@H](CC(=O)O)c1ccccc1` [Example 4.97]: 162 °C; `Cc1cc(C)c(S(=O)(=O)N[C@@H](Cc2ccc(-c3cccc(NC(=O)Nc4nc5ccccc5s4)c3)cc2)C(=O)O)c(C)c1` [Example 1.197]: 198 °C; `O=C(O)CNS(=O)(=O)c1cccc(-c2cccc(Nc3c(NC4CC4)c(=O)c3=O)c2)c1` [Example 13.2]: 204 °C (dec.).
In turn, `Cc1cc(C)c(S(=O)(=O)N[C@@H](Cc2ccc(-c3cccc(N)c3)cc2)C(=O)O)c(C)c1` [Example 1.205] had a melting point of 289 °C.
The molecule `COc1ccc(-c2cccc(CNc3nc4ccccc4[nH]3)c2)cc1S(=O)(=O)NC(CC(=O)O)c1ccccc1` (stereo not shown) [Example 18.5] came in with a melting point of over 240 °C.
In the case of `CCNC(=O)Nc1cccc(-c2ccc(OC)c(S(=O)(=O)NC(CC(=O)O)c3ccccc3)c2)c1` (stereo not shown) [Example 4.73], the melting point is over 250 °C.
Next, `N#C/N=C(\NCc1ccccc1)Nc1cccc(-c2cccc(S(=O)(=O)NC(CC(=O)O)c3ccccc3)c2)c1` (stereo not shown) [Example 10.1.5, 3-[(3′-{[(benzylamino)(cyanoimino)methyl]amino}[1,1′-biphenyl]-3-yl)sulfonylamino]-3-phenyl-propanoic acid]: 90 °C.
Turning to `COc1ccc(-c2ccc(NC(=O)NCc3cccnc3)cc2)cc1S(=O)(=O)NC(CC(=O)O)c1ccccc1` (stereo not shown) [Example 4.67], the melting point was found to be 161 °C.
`C[C@@H](NS(=O)(=O)c1cccc(-c2cccc(NC(=O)Nc3ccncc3)c2)c1)C(=O)O` [Example 4.84] registered a melting point of 169 °C.
Molecule `Cc1cc(C)c(S(=O)(=O)N[C@@H](Cc2ccc(-c3cccc(NC(=O)Nc4nncs4)c3)cc2)C(=O)O)c(C)c1` [Example 1.204] returned a melting point of 202 °C.
The figure for `N#C/N=C(/Nc1cccc(-c2cccc(S(=O)(=O)NC(CC(=O)O)c3ccccc3)c2)c1)NC1CC1` (stereo not shown) [Example 10.3.5, 3-[(3′-{[(cyclopropylamino)(cyanoimino)methyl]amino}[1,1′-biphenyl]-3-yl)sulfonylamino]-3-phenyl-propanoic acid] is 120 °C; for `COc1ccc2nc(NC(=O)Nc3cccc(-c4ccc(C[C@H](NS(=O)(=O)c5c(C)cc(C)cc5C)C(=O)O)cc4)c3)sc2c1` [Example 1.200] it is 225 °C.
The figure for `O=C(O)[C@H](Cc1ccc(-c2cccc(CNc3ccccn3)c2)cc1)NS(=O)(=O)c1cccs1` [Example 18.9] is over 240 °C; for `CC1(C)C2CC[C@@]1(CS(=O)(=O)N[C@@H](Cc1ccc(-c3ccc(NC(=O)Nc4ccncc4)cc3)cc1)C(=O)O)C(=O)C2` [Example 1.214] it is 207 °C.
